Here are results for seven molecules from the Kinase Knowledgebase extract (Sharma et al. 2016).

In this assay the target is CDK2 (human) (UniProt P24941). Description: Enzyme Assay.

Values joined by “and” are separate entries in the source; they are usually repeats but may differ in a detail not shown here. Equal values may be shown once.

For `COc1cccc(CN2CCC(Nc3nc(N[C@H]4CC[C@H](N)CC4)nc4c3ncn4C3CCCC3)CC2)c1`, the IC50 was 140 nM and 300 nM and 340 nM.
As for `COc1ccccc1CN1CCC(Nc2nc(N[C@H]3CC[C@H](N)CC3)nc3c2ncn3C2CCCC2)CC1`, the IC50 was 240 nM and 110 nM and 80 nM.
As for `N[C@H]1CC[C@H](Nc2nc(NC3CCN(Cc4cc(F)ccc4F)CC3)c3ncn(C4CCCC4)c3n2)CC1`, the IC50 was 670 nM and 220 nM and 510 nM.
With `Cc1ccc(CN2CCC(Nc3nc(N[C@H]4CC[C@H](N)CC4)nc4c3ncn4C3CCCC3)CC2)cc1Cl` the figure was 120 nM and 320 nM; with `N[C@H]1CC[C@H](Nc2nc(Nc3ccccc3)c3ncn(C4CCCC4)c3n2)CC1`, 5.4 nM.
In turn, `N[C@H]1CC[C@H](Nc2nc(NC3CCN(Cc4ccc(F)cc4)CC3)c3ncn(C4CCCC4)c3n2)CC1` showed an IC50 of 1700 nM.
`Cc1ccc(CN2CCC(Nc3nc(N[C@H]4CC[C@H](N)CC4)nc4c3ncn4C3CCCC3)CC2)cc1`: the IC50 is 170 nM and 230 nM.
